Measured values as given in patent publication US20100267561A1, “HERBICIDAL PYRIDAZINONE DERIVATIVES” (priority 2007, published 2010).

Columns and labels:
Type in all cases: in vivo
[1] = system: lambsquarters (Chenopodium album); test: Test B pre-/postemergence plant response
Outline: (§1)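 Preemergence and postemergence (plants 2-18 cm, 1- to 4-leaf stage) applications used test chemicals in a non-phytotoxic solvent with surfactant. Plants were held in a greenhouse 13 to 15 days, then rated visually against controls on a 0-100 scale (0 no effect, 100 complete control).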

[2] = system: large crabgrass (Digitaria sanguinalis); test: Test B pre-/postemergence plant response
Outline: as §1

[3] = system: bermudagrass (Cynodon dactylon); test: Test B pre-/postemergence plant response
Outline: as §1

[4] = system: pigweed (Amaranthus retroflexus); test: Test B pre-/postemergence plant response
Outline: as §1

[5] = system: velvetleaf (Abutilon theophrasti); test: Test B pre-/postemergence plant response
Outline: as §1

[6] = system: johnsongrass (Sorghum halepense); test: Test B pre-/postemergence plant response
Outline: as §1

[7] = system: giant foxtail (Setaria faberii); test: Test B pre-/postemergence plant response
Outline: as §1

[8] = system: Italian ryegrass (Lolium multiflorum); test: Test B pre-/postemergence plant response
Outline: as §1

[9] = system: morningglory (Ipomoea coccinea); test: Test B pre-/postemergence plant response
Outline: as §1

soybean (Glycine max) = test: Test B pre-/postemergence plant response
Outline: as §1

kochia (Kochia scoparia) = test: Test B pre-/postemergence plant response
Outline: as §1

[10] = system: catchweed bedstraw (Galium aparine); test: Test B pre-/postemergence plant response; conditions: Preemergence
Outline: as §1

[11] = system: goosegrass (Eleusine indica); test: Test B pre-/postemergence plant response
Outline: as §1

rice (Oryza sativa) = test: Test B flooded paddy test plant response
Outline: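 Step one: raise plants to 2 leaves. Step two: flood pots 3 cm over the soil and apply compound into the water, keeping this depth. Step three: after 13–15 greenhouse days, score visually versus controls, 0–100, where 100 means complete control.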

[12] = Postemergence, 31 g ai/ha, scale 0 to 100, 0 no effect, 100 complete control
[13] = Postemergence, 62 g ai/ha, scale 0 to 100
[14] = Postemergence, 125 g ai/ha, scale 0 to 100
[15] = Postemergence, 250 g ai/ha, scale 0 to 100
[16] = Preemergence, 31 g ai/ha, 0 to 100 scale, 0 no effect, 100 complete control
[17] = Preemergence, 62 g ai/ha, scale 0 to 100
[18] = Preemergence, 125 g ai/ha, scale 0 to 100
[19] = Preemergence, 250 g ai/ha, scale 0 to 100

In the case of `Cc1nn(C)c(=O)c(-n2nc(-c3ccc(Cl)cc3)cc2C)c1O` [Compound 15], the “Plant response rating, Lambsquarters” value [1, 12] is reported as 0, the “Plant response rating, Lambsquarters” value [1, 13] is reported as 0 and the “Plant response rating, Lambsquarters” value [1, 14] is reported as 0. For the same compound, the “Plant response rating, Lambsquarters” value [1, 15] was 0, the “Plant response rating, Lambsquarters” value [1, 16] was 0 and the “Plant response rating, Lambsquarters” value [1, 17] was 0. The “Plant response rating, Lambsquarters” value [1, 18] was 0, the “Plant response rating, Lambsquarters” value [1, 19] was 0 and the “Plant response rating, Crabgrass, Large” value [2, 12] was 90. The “Plant response rating, Crabgrass, Large” value [2, 13] was 90, the “Plant response rating, Crabgrass, Large” value [2, 14] was 98 and the “Plant response rating, Crabgrass, Large” value [2, 15] was 100. The “Plant response rating, Crabgrass, Large” value [2, 16] was 85, the “Plant response rating, Crabgrass, Large” value [2, 17] was 100 and the “Plant response rating, Crabgrass, Large” value [2, 18] was 100. The “Plant response rating, Crabgrass, Large” value [2, 19] was 100, the “Bermudagrass plant response rating” value ([3]; 250 g ai/ha, preemergence, 0-100 scale) was 100 and the “Plant response rating, Bermudagrass” value [3, 12] was 70. For the same compound, the “Plant response rating, Bermudagrass” value [3, 13] was 100, the “Plant response rating, Bermudagrass” value [3, 14] was 100 and the “Plant response rating, Bermudagrass” value [3, 15] was 100. For the same compound, the “Plant response rating, Bermudagrass” value [3, 16] was 98, the “Plant response rating, Bermudagrass” value [3, 17] was 98 and the “Plant response rating, Bermudagrass” value [3, 18] was 100. For the same compound, the “Plant response rating, Pigweed” value [4, 12] was 0, the “Plant response rating, Pigweed” value [4, 13] was 0 and the “Plant response rating, Pigweed” value [4, 14] was 0. The “Plant response rating, Pigweed” value [4, 15] was 0, the “Plant response rating, Pigweed” value [4, 16] was 0 and the “Plant response rating, Pigweed” value [4, 17] was 0. For the same compound, the “Plant response rating, Pigweed” value [4, 18] was 0, the “Plant response rating, Pigweed” value [4, 19] was 0 and the “Plant response rating, Velvetleaf” value [5, 12] was 0. For the same compound, the “Plant response rating, Velvetleaf” value [5, 13] was 0, the “Plant response rating, Velvetleaf” value [5, 14] was 0 and the “Plant response rating, Velvetleaf” value [5, 15] was 0. For the same compound, the “Plant response rating, Velvetleaf” value [5, 16] was 0, the “Plant response rating, Velvetleaf” value [5, 17] was 0 and the “Plant response rating, Velvetleaf” value [5, 19] was 0. For the same compound, the “Plant response rating, Johnsongrass” value [6, 12] was 70, the “Plant response rating, Johnsongrass” value [6, 13] was 80 and the “Plant response rating, Johnsongrass” value [6, 14] was 100. The “Plant response rating, Johnsongrass” value [6, 15] was 100, the “Plant response rating, Johnsongrass” value [6, 16] was 70 and the “Plant response rating, Johnsongrass” value [6, 17] was 95. The “Plant response rating, Johnsongrass” value [6, 18] was 98, the “Plant response rating, Johnsongrass” value [6, 19] was 100 and the “Plant response rating, Foxtail, Giant” value [7, 12] was 95. For the same compound, the “Plant response rating, Foxtail, Giant” value [7, 13] was 100, the “Plant response rating, Foxtail, Giant” value [7, 14] was 100 and the “Plant response rating, Foxtail, Giant” value [7, 15] was 100. The “Plant response rating, Foxtail, Giant” value [7, 16] was 90, the “Plant response rating, Foxtail, Giant” value [7, 17] was 100 and the “Plant response rating, Foxtail, Giant” value [7, 18] was 100. For the same compound, the “Plant response rating, Foxtail, Giant” value [7, 19] was 100, the “Plant response rating, Ryegrass, Italian” value [8, 12] was 98 and the “Plant response rating, Ryegrass, Italian” value [8, 13] was 100. The “Plant response rating, Ryegrass, Italian” value [8, 14] was 100, the “Plant response rating, Ryegrass, Italian” value [8, 15] was 100 and the “Plant response rating, Ryegrass, Italian” value [8, 16] was 70. For the same compound, the “Plant response rating, Ryegrass, Italian” value [8, 17] was 100, the “Plant response rating, Ryegrass, Italian” value [8, 18] was 100 and the “Plant response rating, Ryegrass, Italian” value [8, 19] was 100. For the same compound, the “Plant response rating, Morningglory” value [9, 12] was 0, the “Plant response rating, Morningglory” value [9, 13] was 0 and the “Plant response rating, Morningglory” value [9, 14] was 0. For the same compound, the “Plant response rating, Morningglory” value [9, 15] was 0, the “Plant response rating, Morningglory” value [9, 16] was 0 and the “Plant response rating, Morningglory” value [9, 18] was 0. The “Plant response rating, Soybean” value (soybean (Glycine max); [12]) was 0, the “Plant response rating, Soybean” value (soybean (Glycine max); [13]) was 0 and the “Plant response rating, Soybean” value (soybean (Glycine max); [14]) was 0. For the same compound, the “Plant response rating, Soybean” value (soybean (Glycine max); [15]) was 0, the “Plant response rating, Soybean” value (soybean (Glycine max); [16]) was 0 and the “Plant response rating, Soybean” value (soybean (Glycine max); [17]) was 0. The “Plant response rating, Soybean” value (soybean (Glycine max); [19]) was 30, the “Plant response rating, Kochia” value (kochia (Kochia scoparia); [12]) was 0 and the “Plant response rating, Kochia” value (kochia (Kochia scoparia); [13]) was 0. The “Plant response rating, Kochia” value (kochia (Kochia scoparia); [14]) was 0, the “Plant response rating, Kochia” value (kochia (Kochia scoparia); [15]) was 0 and the “Plant response rating, Kochia” value (kochia (Kochia scoparia); [17]) was 0. For the same compound, the “Plant response rating, Galium” value ([10]; 31 g ai/ha, 0 to 100 scale, 0 no effect, 100 complete control) was 0, the “Plant response rating, Galium” value ([10]; 62 g ai/ha, scale 0 to 100) was 0 and the “Plant response rating, Galium” value ([10]; 125 g ai/ha, scale 0 to 100) was 10. The “Plant response rating, Galium” value ([10]; 250 g ai/ha, scale 0 to 100) was 100, the “Plant response rating, Goosegrass” value [11, 12] was 45 and the “Plant response rating, Goosegrass” value [11, 13] was 60. The “Plant response rating, Goosegrass” value [11, 14] was 90, the “Plant response rating, Goosegrass” value [11, 15] was 100 and the “Plant response rating, Goosegrass” value [11, 16] was 0. For the same compound, the “Plant response rating, Goosegrass” value [11, 17] was 90, the “Plant response rating, Goosegrass” value [11, 18] was 90 and the “Plant response rating, Goosegrass” value [11, 19] was 100. For the same compound, the “Plant response rating, Rice” value (rice (Oryza sativa); Flood (flooded paddy test), 62 g ai/ha, scale 0 to 100, 0 no effect, 100 complete control) was 0, the “Plant response rating, Rice” value (rice (Oryza sativa); Flood (flooded paddy test), 125 g ai/ha, scale 0 to 100, 0 no effect, 100 complete control) was 15 and the “Plant response rating, Rice” value (rice (Oryza sativa); Flood (flooded paddy test), 250 g ai/ha, scale 0 to 100, 0 no effect, 100 complete control) was 70. The “Plant response rating, Rice” value (rice (Oryza sativa); Flood, 31 g ai/ha, scale 0 to 100) was 0.
